{"source": "patent US20080050755A1", "about": "“Method for screening for chemotherapeutic treatments for cancer” (priority 2000, published 2008)", "system": "Tcf/Lef reporter activity (endogenous β-catenin) in 293T cells", "test": "Tcf/Lef reporter assay (pTOPFLASH/pFOPFLASH) in adriamycin-treated 293T cells", "assay_type": "cell-based", "conditions": "293T cells treated with 1 µg/ml adriamycin 8 hours after transfection for 16 hours; FIG. 6E", "from_the_text": "FIGS. 6A, 6B, 6C, and 6E illustrate that Siah-1 mediates p53-induced degradation of β-catenin. […] 293T cells were transiently co-transfected with an internal control (pEGFP) and the indicated plasmids. The amount of DNA in each transfection was kept constant by the addition of an appropriate amount of empty expression vector. Whole cell lysates were subjected to Western analysis. Blots were probed with mouse monoclonal antibodies to the Myc epitope tag (upper panel) and GFP (lower panel). FIG. 6C illustrate the pulse-chase analysis of ectopically expressed Myc-tagged β-catenin. […] Immunoprecipitated Myc-β-catenin was subjected to SDS-PAGE and dried gels were analyzed with a PhosphorImager. […]\nCell culture, transfection, reporter assay, co-immunoprecipitation and immmunoblotting. […] Luciferase and β-galactosidase activity was measured 24 hours after transfecton. Tcf/Lef reporter activity was determined as described. […] The whole cell extract (WCE) was immunoprecipitated using a mouse monoclonal antibody specific for the amino-terminus of pAPC (Ab-5, Oncogene Research) or a control mouse IgG, and associated Myc-Siah-1 protein was detected by immunoblotting using an anti-Myc monoclonal antibody (9E10). The pAPC in WCE (20 µg) and immunoprecipitates was detected using an anti-APC mouse monoclonal antibody (Ab-1, Oncogene Research). […]", "data": [{"smiles": "COc1cccc2c1C(=O)c1c(O)c3c(c(O)c1C2=O)C[C@@](O)(C(=O)CO)C[C@@H]3O[C@H]1C[C@H](N)[C@H](O)[C@H](C)O1", "note": "[adriamycin]", "values": [{"measurement": "Tcf/Lef reporter activity (TOP/FOP)", "result": "decreased Tcf/Lef reporter activity"}]}]}
